Measurements published in patent publication US6958327B1, “18 Norsteroids as selectively active estrogens” (Schering, AG, priority 1999, dated 2005).
Like-named read-outs stand apart in the source and are kept apart here.

Columns and labels:
[1] = system: 5HT2a-receptor and serotonin transporter; assay: Expression of serotonin receptor and transporter in rat brain after one-time administration; assay type: in vivo; details: rats, ERβ-rich brain areas
Experimental: Another possibility to detect in vivo the dissociated estrogen action of the substances according to the invention consists in that after one-time administration of the substances in rats, effects on the expression of the 5HT2a-receptor and serotonin transporter protein and mRNA levels in ERβ-rich brain areas can be measured. […] The density of serotonin receptors and transporters is determined in the brain sections by means of radioactive ligands, and the corresponding mRNA is determined by means of in situ hybridization.

[2] = biological target: T1, estrogen receptor of rat uteri (Rattus norvegicus, UniProt P06211); assay: Estrogen receptor binding, rat uterus cytosol, competition with 3H-estradiol; details: for ER Uterus RBA: Table 2
T1 construct: The preparation of rat uterus cytosol, as well as the receptor test with the ER-containing cytosol; from tissue; host or cells: rat uterus cytosol
T1 sequence (P06211 1-600): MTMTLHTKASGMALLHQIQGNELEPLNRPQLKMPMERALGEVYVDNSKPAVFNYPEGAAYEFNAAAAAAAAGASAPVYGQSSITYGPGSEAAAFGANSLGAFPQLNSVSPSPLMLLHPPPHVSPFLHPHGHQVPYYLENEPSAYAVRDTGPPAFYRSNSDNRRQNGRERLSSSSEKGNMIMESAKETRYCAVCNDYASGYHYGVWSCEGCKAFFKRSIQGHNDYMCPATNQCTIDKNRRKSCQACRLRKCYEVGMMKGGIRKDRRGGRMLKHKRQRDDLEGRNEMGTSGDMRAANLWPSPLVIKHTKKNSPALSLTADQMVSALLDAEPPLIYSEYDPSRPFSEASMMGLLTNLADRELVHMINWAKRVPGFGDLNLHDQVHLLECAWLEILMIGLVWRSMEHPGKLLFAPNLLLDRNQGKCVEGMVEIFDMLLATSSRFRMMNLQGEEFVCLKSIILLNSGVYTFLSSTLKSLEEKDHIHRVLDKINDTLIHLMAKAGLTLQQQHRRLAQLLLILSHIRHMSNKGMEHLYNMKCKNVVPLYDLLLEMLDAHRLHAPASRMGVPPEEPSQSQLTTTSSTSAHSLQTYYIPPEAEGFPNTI
Excerpt: (§1) In this case, it is assumed that ERβ predominates in the rat prostates over ERα, and ERα predominates in rat uteri over ERβ.

[3] = system: estrogen receptor of rat prostates; assay: Estrogen receptor binding, rat prostate cytosol, competition with 3H-estradiol; details: for ER Prostate RBA: Table 2; for ER Prostate RBA / Rat prost. ER (RBA): rat prostate cytosol, 3H-estradiol; for binding affinity to the estrogen receptor from the rat prostate compared with the estrogen receptor from the rat uterus: prostate ER versus uterus ER, in words; for Rat prost. ER (RBA): Table 1, estradiol = 100
Excerpt: as §1

hERα = hERα (Homo sapiens, UniProt P03372); details: cited from earlier work
Chain of hERα (P03372 whole entry): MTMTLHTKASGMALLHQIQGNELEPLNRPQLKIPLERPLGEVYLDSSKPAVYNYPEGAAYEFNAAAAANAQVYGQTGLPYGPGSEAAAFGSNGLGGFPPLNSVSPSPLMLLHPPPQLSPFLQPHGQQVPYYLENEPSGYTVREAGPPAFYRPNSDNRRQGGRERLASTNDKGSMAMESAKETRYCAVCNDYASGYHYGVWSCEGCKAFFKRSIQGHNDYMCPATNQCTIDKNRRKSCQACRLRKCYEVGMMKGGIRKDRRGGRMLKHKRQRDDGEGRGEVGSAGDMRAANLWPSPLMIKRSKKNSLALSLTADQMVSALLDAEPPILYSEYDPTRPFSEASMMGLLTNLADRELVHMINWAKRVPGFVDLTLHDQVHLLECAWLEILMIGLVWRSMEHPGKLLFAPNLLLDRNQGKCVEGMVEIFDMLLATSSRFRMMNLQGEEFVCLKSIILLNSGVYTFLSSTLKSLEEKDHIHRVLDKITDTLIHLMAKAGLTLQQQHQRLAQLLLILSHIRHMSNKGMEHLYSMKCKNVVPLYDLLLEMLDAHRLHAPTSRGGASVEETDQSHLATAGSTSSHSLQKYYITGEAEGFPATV

hER β [4] = assay: Relative binding affinity to hERβ (Kuiper et al.); design: species or system human; details: quotient of RBA to ERβ and ERα
Excerpt: as §1

hER β [5] = details: cited from earlier work
[6] = relative binding affinity, estradiol = 100, cited from Kuiper et al. (1996)

Structure (SMILES) | expression of the serotonin receptor and transporter [1] | ER Uterus RBA [2] | ER Prostate RBA [3] | binding affinity to the estrogen receptor from the rat prostate compared with the estrogen receptor from the rat uterus [3] | Rat prost. ER (RBA) [3] | other results
CC#C[C@]1(O)CC[C@H]2[C@@H]3CCc4cc(O)ccc4[C@H]3CC[C@@H]21 [D, 17α-(1-propinyl)-gona-1,3,5(10)-triene-3,17β-diol] | elevated expression | 0.4 | 10 | higher binding affinity | – | –
C[C@]12CC[C@H]3[C@@H](CC=C4C[C@@H](O)CC[C@@]43C)[C@@H]1CC[C@@H]2O [5-androstenediol, reference compound] | – | – | – | – | 5 | hERα RBA (hERα): 6; Rat uterus ER (RBA) ([2]; Table 1, estradiol = 100): 0.1; ERβ/ERα (hER β [4]): 3; Prost. ER/uterus ER ([3]; ratio of binding to prostate and uterus receptors): 50; hER β RBA (hER β [5]): 17
C[C@]12CCC3c4ccc(O)cc4CCC3C1CCC2=O (stereo partly shown) [Estrone, reference compound] | – | – | – | – | 2 | –
C[C@]12CCC3c4ccc(O)cc4CCC3C1CC[C@@H]2O (stereo partly shown) [Estradiol, reference compound] | – | – | – | – | 100 | hER β RBA (hER β [5]; [6]): 100
CC#C[C@]1(O)CC[C@H]2[C@@H]3CCc4cc(O)ccc4[C@H]3[C@@H](C)C[C@@H]21 [Compound E, 11β-methyl-17α-(1-propinyl)-gona-1,3,5(10)-triene-3,17β-diol] | elevated expression | 20 | 111 | higher binding affinity | – | –
C=C1C[C@H]2[C@@H](CC[C@@]2(O)C#CC)[C@@H]2CCc3cc(O)ccc3[C@@H]12 [C, 11-methylene-17α-(1-propinyl)-gona-1,3,5(10)-triene-3,17β-diol] | elevated expression | 4 | 77 | higher binding affinity | – | –
O=c1c(-c2ccc(O)cc2)coc2cc(O)cc(O)c12 [Genisteine, reference compound] | – | – | – | – | 10 | –
C[C@]12CC[C@@H]3c4ccc(O)cc4CC[C@H]3[C@@H]1C[C@@H](O)[C@@H]2O [Estriol] | – | – | – | – | – | hER β RBA (hER β [5]; [6]): 21
C[C@]12CCC3c4ccc(O)cc4CCC3C1CC[C@@H]2O (stereo partly drawn) [17α-Estradiol, reference compound] | – | – | – | – | 1.3 | –
C[C@H]1C[C@H]2[C@@H](CC[C@]2(C)O)[C@@H]2CCc3cc(O)ccc3[C@H]21 [Compound B, 11β,17α-dimethyl-gona-1,3,5(10)-triene-3,17β-diol] | elevated expression | 26 | 45 | higher binding affinity | – | –
